According to patent US8962657B2, “Aryl derivatives and uses thereof” (Jacobus Pharmaceutical Company, Inc., priority 2012, dated 2015):
Marks after values point to notes of the source that are not given here.

Test system: Plasmodium berghei (KBG-173 strain)
Experiment: Plasmodium berghei assay in vivo (modified Thompson Test), survival of infected mice
Set-up: species or system Charles River CD-1 mice
Settings: oral bid on days 3, 4 and 5; for Average Days Survival: 31 day experiment
Method: In vivo antimalarial activity was tested in male or female Charles River CD-1 mice that were 4-5 weeks old and weighed 20-25 g They were housed in groups of 3 or 4 in standard plastic cages with wire tops, Bed-o-cob® bedding, 12 hr/day of light, and maintained at 75° F. They were fed a standard Ralston Purina mouse chow and the cages and bottles were changed twice a week. Test compounds were ground in a mortar and pestle and diluted with enough vehicle to give a volume of 10 mL/kg of mouse weight. The oral doses were prepared in 0.5% hydroxyethylcellulose (Union Carbide Corp. WP 4400)/0.1% Tween-80 (Fisher Scientific T164-500). The amount of drug was calculated on the free base weight. The mice were infected intraperitoneally on day 0 with 5×10^4 erythrocytes parasitized with Plasmodium berghei (KBG-173 strain) from a donor mouse having a parasitemia between 5-10%. On days 3, 4 and 5 the test compounds were administered bid, spaced 6 hr apart, by oral gavage to the mice. Activity was measured by survival, with full activity defined as all animals living at day 31. Partial activity is defined as days of increased survival versus the infected non-treated controls. This in vivo model is a modification of the Thompson Test. For further description see Ager, A. L, Jr. Rodent Malaria Models. In Handbook of Experimental Pharmacology: Antimalarial Drugs. 1. 68/1; Peters, W., Richards, W. H. G., Eds.: Springer-Verlag: Berlin, 1984, pp. 231-33.

[1] = Plasmodium berghei, 744 h, 4 mg/kg/day, read-out: Number of mice alive at day 31 (converted)
[2] = Plasmodium berghei, 744 h, 8 mg/kg/day, read-out: Number of mice alive at day 31 (converted)
[3] = Plasmodium berghei, 744 h, 16 mg/kg/day, read-out: Number of mice alive at day 31 (converted)
[4] = Plasmodium berghei, 744 h, 32 mg/kg/day, read-out: Number of mice alive at day 31 (converted)
[5] = Plasmodium berghei, 744 h, 2 mg/kg/day, read-out: Number of mice alive at day 31 (converted)
[6] = Plasmodium berghei, 744 h, 64 mg/kg/day, read-out: Number of mice alive at day 31 (converted)

| Compound | Average Days Survival (4 mg/kg/day) | Average Days Survival (8 mg/kg/day) | Average Days Survival (16 mg/kg/day) | Average Days Survival (32 mg/kg/day) | responders at 4 mg/kg [1] [%] | responders at 8 mg/kg [2] [%] | responders at 16 mg/kg [3] [%] | responders at 32 mg/kg [4] [%] | Average Days Survival (2 mg/kg/day) [days] | Average Days Survival (64 mg/kg/day) | responders at 2 mg/kg [5] [%] | responders at 64 mg/kg [6] [%] | Average Days Survival (128 mg/kg/day) | Average Days Survival (256 mg/kg/day) | responders at 128 mg/kg (Plasmodium berghei, 744 h, 128 mg/kg/day, read-out: Number of mice alive at day 31 (converted)) [%] | responders at 256 mg/kg (Plasmodium berghei, 744 h, 256 mg/kg/day, read-out: Number of mice alive at day 31 (converted)) [%] | Average Days Survival (1 mg/kg/day) [days] | responders at 1 mg/kg (Plasmodium berghei, 744 h, 1 mg/kg/day, read-out: Number of mice alive at day 31 (converted)) [%] |
| --- | --- | --- | --- | --- | --- | --- | --- | --- | --- | --- | --- | --- | --- | --- | --- | --- | --- | --- |
| CC1(NCc2cc(C(C)(C)C)cc(-c3ccc(OC(F)(F)F)cc3)c2O)CCC1.Cl [Example 18, 5-(tert-Butyl)-3-(((1-methylcyclobutyl)amino)methyl)-4′-(trifluoromethoxy)-[1,1′-biphenyl]-2-ol hydrochloride] | 15.7 days | >31* Days | >31* Days | >31* Days | 0 | 100 | 100 | 100 |  |  |  |  |  |  |  |  |  |  |
| CC(C)(C)NCc1cc(C(C)(C)C)cc(-c2ccc(C(F)(F)F)cc2)c1O.Cl [Example 22, 5-(tert-Butyl)-3-((tert-butylamino)methyl)-4′-(trifluoromethyl)-[1,1′-biphenyl]-2-ol hydrochloride] | >24 days | >31* Days | >31* Days | >31* Days | 85.7 | 100 | 100 | 100 | >16.8 | >31* Days | 28.6 | 100 |  |  |  |  |  |  |
| CC(C)(C)NCc1cc(C(C)(C)C)cc(-c2ccc(F)c(Cl)c2)c1O.Cl [Example 24, 5-(tert-Butyl)-3-((tert-butylamino)methyl)-3′-chloro-4′-fluoro-[1,1′-biphenyl]-2-ol hydrochloride] | >14.5 days | >16 days | >31* Days | >31* Days | 71.4 | 85.7 | 100 | 100 | >17 |  | 42.9 |  |  |  |  |  |  |  |
| CC(C)(C)NCc1cc(-c2ccc(Cl)cc2)cc(-c2ccc(Cl)c(Cl)c2)c1O.Cl [Example 39, 5′-((tert-Butylamino)methyl)-3″,4,4″-trichloro-[1,1′:3′,1″-terphenyl]-4′-ol hydrochloride] | >31* Days | >31* Days | >31* Days |  | 100 | 100 | 100 |  | >23 |  | 14.3 |  |  |  |  |  |  |  |
| CC(C)(C)NCc1cc(C(C)(C)C)cc(-c2ccc(OC(F)(F)F)cc2)c1O [Example 5, 5-(tert-Butyl)-3-((tert-butylamino)methyl)-4′-(trifluoromethoxy)-[1,1′-biphenyl]-2-ol] | >19.3 days | >31* Days | >31* Days | >31* Days | 42.9 | 100 | 100 | 100 |  | >31* Days |  | 100 | >31* Days | >31* Days | 100 | 100 |  |  |
| CC(C)(C)NCc1cc(C(C)(C)C)cc(-c2ccc(Cl)c(Cl)c2)c1O.Cl [Example 19, 5-(tert-Butyl)-3-((tert-butylamino)methyl)-3′,4′-dichloro-[1,1′-biphenyl]-2-ol hydrochloride] | >31* Days | >31* Days | >31* Days |  | 100 | 100 | 100 |  | >7 |  | 85.7 |  |  |  |  |  | >19.6 | 28.6 |
| CC(C)(C)NCc1cc(C(C)(C)C)cc(-c2cc(C(F)(F)F)cc(C(F)(F)F)c2)c1O.Cl [Example 16, 5-(tert-Butyl)-3-((tert-butylamino)methyl)-3′,5′-bis(trifluoromethyl)-[1,1′-biphenyl]-2-ol hydrochloride] | >17 days | >31* Days | >31* Days | >31* Days | 85.7 | 100 | 100 | 100 | >20.5 |  | 42.9 |  |  |  |  |  |  |  |
